The source made the active and inactive calls. The rule behind the calls is not given here.
Legend:
[1] = Inhibition of IL-17A production in PMA/ionomycin-stimulated mouse EL4 cells at 10 uM measured by ELISA relative to control; assay type: functional
[2] = Inhibition of IL-17A production in PMA/ionomycin-stimulated mouse EL4 cells at 20 uM measured by ELISA relative to control; assay type: functional
EL4 [3] = test: Inhibition of IL-17F mRNA expression in PMA/ionomycin-stimulated mouse EL4 cells at 10 uM measured by qRT-PCR method; assay type: functional, cell-based
[4] = Inhibition of IL-17A production in PMA/ionomycin-stimulated mouse EL4 cells measured by ELISA; assay type: functional, cell-based
EL4 [5] = test: Inhibition of IL-17A production in PMA/ionomycin-stimulated mouse EL4 cells at 2 to 10 uM measured by ELISA; assay type: functional, cell-based; conditions: dose 2-10 µM, DDE = dose-dependent effect
EL4 [6] = test: Inhibition of IL-17A production in PMA/ionomycin-stimulated mouse EL4 cells at 2 to 10 uM measured […]; assay type: functional, cell-based; conditions: dose 2-10 µM, DDE = dose-dependent effect
EL4 [7] = test: Inhibition of IL-17A mRNA expression in PMA/ionomycin-stimulated mouse EL4 cells at 10 uM measured by qRT-PCR method; assay type: functional, cell-based
Th17 [8] = test: Inhibition of human Th17 cells differentiation in CD4+ve T cells assessed as decrease in IL-17A mRNA expression at 2 uM measured by qRT-PCR method; assay type: functional, cell-based
Th17 [9] = test: Inhibition of human Th17 cells differentiation in CD4+ve T cells assessed as decrease in IL-17A production at 2 uM measured by ELISA; assay type: functional, cell-based
EL4 [10] = test: Downregulation ofp-STAT3 (Y705) expression in PMA/ionomycin-stimulated mouse EL4 cells measured by western blot analysis; assay type: functional, cell-based

Work on `CC(=O)NCCNc1ccc(-c2noc(Cc3c[nH]c4ccccc34)n2)cc1` yielded an inhibition at 10 µM [1] of 31%.
Compound `CS(=O)(=O)c1ccc(CNc2ccc(-c3noc(Cc4c[nH]c5ccccc45)n3)cc2)cc1` has an inhibition at 10 µM [1] of 10.3%.
`NCCNc1ccc(-c2noc(Cc3c[nH]c4ccccc34)n2)cc1` gave an inhibition at 10 µM [1] of 21.5%.
For `CN(C)CCNc1ccc(-c2noc(C34CC5CC(CC(C5)C3)C4)n2)cc1`, the inhibition at 10 µM [1] was 39.6%.
In the case of `CS(=O)(=O)c1ccc(CNC23CCC(c4nc(Cc5c[nH]c6ccccc56)no4)(CC2)C3)cc1`, the inhibition at 10 µM [1] is reported as 8.1%.
Compound `O=S(=O)(c1ccccc1)N(CC(F)(F)F)c1ccc(C(O)(C(F)(F)F)C(F)(F)F)cc1` [T091317] has an inhibition at 20 µM [2] of 52.7%.
Work on `NC12CCC(c3nc(Cc4c[nH]c5ccccc45)no3)(CC1)C2` yielded an inhibition at 10 µM [1] of 3%.
For `Nc1ccc(-c2noc(Cc3c[nH]c4ccccc34)n2)cc1`, the inhibition at 10 µM [1] was 6.4%.
`c1ccc2c(Cc3noc(CNC4CCC4)n3)c[nH]c2c1` gave an inhibition at 10 µM [1] of 5.8%.
Compound `N=C(N)NCCNc1ccc(-c2noc(Cc3c[nH]c4ccccc34)n2)cc1` has an inhibition at 10 µM [1] of 15.2%.
For `COc1cc(-c2nc(-c3ccc(NCCN(C)C)cc3)no2)cc(OC)c1OC`, the inhibition (EL4 [3]) was “Active”, the IC50 [4] was 5.29 µM and the inhibition (EL4 [5]) was “Dde”. The inhibition (EL4 [6]) was “Dde”, the inhibition at 10 µM [1] was 83.5% and the inhibition (EL4 [7]) was “Active”.
With `CN(C)CCNc1ccc(-c2noc(Cc3c[nH]c4ccccc34)n2)cc1` the inhibition (Th17 [8]) was “Active”, the inhibition (EL4 [3]) was “Active” and the IC50 [4] was 7.73 µM. The inhibition (Th17 [9]) was “Active”, the inhibition (EL4 [5]) was “Dde” and the inhibition (EL4 [6]) was “Dde”. For the same compound, the Activity (EL4 [10]) was “Active”, the inhibition at 10 µM [1] was 78.7% and the inhibition (EL4 [7]) was “Active”.
`CN(C)CCNc1ccc(-c2noc(-c3ccccc3)n2)cc1` showed an inhibition at 20 µM [2] of 22.9%.
With `CN(C)CCNCc1nc(Cc2c[nH]c3ccccc23)no1` the inhibition at 10 µM [1] was 6.1%.

Reference: ChEMBL document CHEMBL5107993, “Design, synthesis and in vitro biological evaluation of marine phidianidine derivatives as potential anti-inflammatory agents” (Bioorg Med Chem, 2022)
